Experimental data taken from publication PMC7377376, “Drug targeting CYP2E1 for the treatment of early-stage alcoholic steatohepatitis” (PLoS ONE, 2020).

How the values were obtained:
rat liver microsomes = experiment: Difference spectra titration of rat liver microsomes; conditions: one specific binding site
Procedure: Liver microsomes were prepared as follows: Rat liver was homogenized in 33 mM TRIS*HCl pH 7.4, 33 mM KCl, 1 mM EDTA, 250 mM sucrose and protease inhibitors. The homogenate was centrifuged first at 600 g then at 6,500 g for 10 minutes to separate nuclei and mitochondria. Supernatant was centrifuged at 105,000 g for 60 minutes. The pellet (microsomal fraction) was dissolved in 10 mM TRIS*HCl pH 7.4, 10 mM EDTA, 50% glycerol and stored at -80°C [20].
Difference spectra measurements were performed in tandem cuvettes at 37°C. The sample as well as the reference chamber contained rat liver microsomes in 100 mM HEPES buffer (pH 7.6). The baseline was recorded between 365 and 500 nm. Varying concentrations of 12-Imidazolyl-dodecan-1-yl-phosphocholine (5–95 μM) were added to rat microsomes. Difference spectra were obtained after the system reached equilibrium.

[1] = First pharmacokinetic study of I-ol, calculated blood concentration; format: in vivo; conditions: rat
Procedure: Following these studies, we performed a single pharmacokinetic study with I-ol to get evidence for a possible further development of this lead compound. The complete study is summarized in the Word document " First pharmacokinetic study of I-ol".
Assuming a maximum oral bioavailability of 0.1 percent for I-ol, the following comparison results:
The peroral intake of 0.4 mg I-ol/kg body weight of the rat leads to a blood concentration of 6.3 ng I-ol/ml, which corresponds to 26.3 nmol I-ol/l. An average body weight of 230 g and a blood volume of 14.5 ml was assumed. The molecular mass of I-ol is 240 g/mol. An oral bioavailability of 0.1% was used despite reasonable doubt about the finality of this amount.

OCCCCCCCCCCCCn1ccnc1 [I-ol]
Kd (rat liver microsomes): 578 nM
maximum oral bioavailability ([1]; oral, assumed value from first pharmacokinetic study): ≤ 0.1%
calculated blood concentration ([1]; peroral 0.4 mg/kg body weight, bioavailability 0.1% assumed): 26.3 nmol I-ol/l
calculated blood concentration ([1]; peroral 0.4 mg/kg body weight, bioavailability 0.1%, blood volume 14.5 ml, body weight 230 g assumed): 6.3 ng I-ol/ml
calculated blood concentration ([1]; peroral 4 mg/kg, bioavailability 0.1% assumed): 263 nmol/L
calculated blood concentration ([1]; peroral 40 mg/kg, bioavailability 0.1% assumed): 2630 nmol/L
